Measured values from patent publication US12565514B2, “Nucleic acid containing perfluoroalkyl group, and method for its production” (AGC Inc., priority 2019, dated 2026).
{C5-PFC} = N[C5-PFC] unit carrying a C5 perfluoroalkyl group, added by phosphoramidite

These substances were tested on HeLa cells (assay: Cellular uptake of fluorescein-modified nucleic acids by flow cytometry). Conditions: single-stranded nucleic acid with fluorescein at 3′-end, 2.5 μM in DMEM, incubated 4 or 24 hours.
Format: cell-based
Protocol: HeLa cells were cultured in Dulbecco's modified Eagle's medium (DMEM, Thermo Fischer Scientific) supplemented with 10% FBS and 0.5% penicillin/streptomycin in a humidified atmosphere (5 volume % CO2) at 37° C. Cells for image analysis were cultured in a 35 mm glass bottom dish (manufactured by IWAKI).
HeLa cells were seeded in 12-well plates at a density of 10^5 cells/well and cultured. On the day after seeding, the medium in each well was replaced with DMEM medium (1 mL) containing DNA (2.5 μM) modified with fluorescein-bound N[PFC] or N[PFPE], and incubated for 4 or 24 hours. Then, the cell layer in the wells was washed twice with PBS, and the cells were detached by treatment with 0.05% (w/v) trypsin (200 μL) at 37° C. for 5 min. The recovered cells were suspended in DMEM (600 μL). The cell suspension was separated by centrifugation process (400G, 3 min), and PBS/1% BSA (500 μL) was added. The percentage of fluorescent cells and the average fluorescence intensity of this cell suspension were analyzed by a flow cytometer (“guava easyCyte8”, manufactured by Luminex).
In the case of double-stranded DNA, a sample was denatured at 100° C. and annealed by slowly bringing it down to room temperature.
The nucleic acid having fluorescein bonded to the 3′-end of the N[C8-PFC]-modified DNA synthesized in Example 2 was, as a single strand or as a double strand, added to the culture medium of HeLa cells and incubated, whereby the efficiency of cellular uptake was examined by flow cytometry.
The nucleic acid having fluorescein bonded to the 3′-end of the N[C5-PFPE]-modified DNA synthesized in Example 1 was, as a single strand, added to the culture medium of HeLa cells and incubated, whereby the efficiency of cellular uptake was examined by flow cytometry.

Substance | cellular uptake (flow cytometry)
5′-(N[C5-PFC])2TTTTTCAGTTGACCATATA-3′ [F2] | higher cellular uptake than the fluorescein-modified nucleic acid of cont-DNA
5′-(N[C5-PFC])5TTTTTCAGTTGACCATATA-3′ (DNA, 5' {C5-PFC}-{C5-PFC}-{C5-PFC}-{C5-PFC}-{C5-PFC}, backbone not given here) [F5] | higher cellular uptake than the fluorescein-modified nucleic acid of cont-DNA
5′-(N[C5-PFC])TTTTCAGTTGACCATATA-3′ (DNA, 5' {C5-PFC}, backbone not given here) [F1] | no difference from the fluorescein-modified nucleic acid of cont-DNA
